# Assay results published in patent publication US12303509B2, “Compounds for the treatment of BRAF-associated diseases and disorders” (Pfizer Inc., priority 2020, dated 2025).
# Columns and labels:
# [1] = biological target: full-length FLAG-tagged B-Raf(V600E) (Homo sapiens (Human), UniProt P15056, V600E); assay: BRAF V600E enzyme assay (TR-FRET competitive displacement); assay type: binding; conditions: averaged IC50; TR-FRET tracer displacement, 60 min
# How it was run: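 Displacement of 50 nM Tracer 1710 from 5 nM full-length N-terminally FLAG-tagged B-Raf(V600E), detected by TR-FRET with 0.5 nM Eu anti-FLAG antibody, in 25 mM HEPES pH 7.4, 10 mM MgCl2, 2% DMSO; 60 min at ~22 °C. Compounds 11-point, 3-fold from 10 μM; IC50 from 4-parameter fit at 50 POC.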
# [2] = system: A375 cells; assay: Cellular phospho-ERK inhibition assay in A375 cells; assay type: cell-based; conditions: Homo sapiens, A-375, A375 cells (head prints A357), 2 hours treatment, read-out: A357 cell IC50
# How it was run: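 A375 (DMEM) or H1755 (RPMI) cells in 10% FBS treated 2 h at 37 °C with 9-point series, 66 pM–10 μM, 0.25% DMSO. Phospho-ERK1/2 (Thr202/Tyr204) measured by In Cell Western, normalised to GAPDH and to DMSO and 10 μM binimetinib controls; IC50 by 4-parameter fit.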
# [3] = system: NCI-H1666 (BRAF G466V) cells; assay: Proliferation assay (CellTiter-Glo) in NCI-H1666 cells; assay type: cell-based; conditions: Homo sapiens, 3-5 day incubation
# Protocol: The compounds of Example 13, Example 14 and Example 126 were evaluated in a proliferation assay in two mutant BRAF Class III cell lines: NCI-H1666 (BRAF^G466V) and WM3629 cells (BRAF^D594G/NRAS^G12D). NCI-H1666 cells were obtained from the American Type Culture Collection (ATCC, Rockville, MD) and WM3629 cells were obtained from Rockland Immunochemicals (Limerick, PA). Cells were maintained in RPMI growth medium containing 10% FBS.
# Cells were harvested according to standard protocols, counted, and plated onto flat-bottom, 96-well tissue culture plates (Costar #3599) at 2000-5000 cells/well in 100 μL/well of growth medium containing 10% FBS. Cells were incubated at 37° C. with 5% CO2 overnight then treated with inhibitors prepared as a 9-point, 1:3.33 fold dilution series with final compound concentrations ranging from 66 pM-10 μM and a constant DMSO concentration of 0.25%. Control wells contained 0.25% DMSO alone. After a 3-5 day incubation at 37° C., 5% CO2, cell viability was determined by adding 100 μL CellTiter-Glo® Reagent (Promega) to each well and incubated for 15 minutes at room temperature. “Day 0” controls were determined by performing CellTiter-Glo© assay on DMSO control wells at the time of compound treatment (“Day 0” control=0 POC). Luminescence was measured on a Cytation 5 plate reader (BioTek) and values were converted to POC using the following equation:
# [formula] • Where: • Xmax Average DMSO Controls • Xmin Average “Day 0” DMSO Controls • IC50 values were calculated using a 4-parameter fit in XLfit software and are shown in Table A2.
# [4] = MDR1 LLC-PK1 and BCRP MDCKII permeability assay: permeability coefficient (Papp); assay type: in vitro ADME
# Source text: Final organic concentration in the assay was 1%.
# Chain of full-length FLAG-tagged B-Raf(V600E) (P15056 whole entry V600E): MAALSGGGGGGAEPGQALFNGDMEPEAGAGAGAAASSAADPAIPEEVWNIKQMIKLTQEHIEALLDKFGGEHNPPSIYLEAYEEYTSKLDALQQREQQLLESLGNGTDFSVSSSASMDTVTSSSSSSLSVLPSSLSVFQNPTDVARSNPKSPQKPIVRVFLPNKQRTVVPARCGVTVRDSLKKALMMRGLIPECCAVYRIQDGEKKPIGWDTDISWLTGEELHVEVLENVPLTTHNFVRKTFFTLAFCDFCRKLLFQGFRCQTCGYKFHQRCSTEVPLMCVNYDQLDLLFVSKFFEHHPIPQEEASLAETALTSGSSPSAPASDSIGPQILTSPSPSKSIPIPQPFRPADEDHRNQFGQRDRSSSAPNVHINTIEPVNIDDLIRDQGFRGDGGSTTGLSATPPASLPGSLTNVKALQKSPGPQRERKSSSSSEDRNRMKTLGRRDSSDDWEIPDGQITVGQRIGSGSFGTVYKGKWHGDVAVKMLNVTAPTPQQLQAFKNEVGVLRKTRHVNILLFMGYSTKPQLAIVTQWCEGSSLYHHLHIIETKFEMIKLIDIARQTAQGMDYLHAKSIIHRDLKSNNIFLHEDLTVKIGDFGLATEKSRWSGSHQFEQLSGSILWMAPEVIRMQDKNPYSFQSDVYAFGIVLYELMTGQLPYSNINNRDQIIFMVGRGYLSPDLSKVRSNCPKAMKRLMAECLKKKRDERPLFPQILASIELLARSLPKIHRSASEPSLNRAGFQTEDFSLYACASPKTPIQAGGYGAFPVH
IC50 [1] [nM],IC50 [2] [nM],IC50 [3] [nM],"Papp at 2 h, 1 µM [4] [×10⁻⁶ cm/s]",SMILES
6,6,240,32,"Cn1cnc2ccc(Nc3c(F)ccc(NS(=O)(=O)N4CC5CC4C5)c3Cl)c(F)c2c1=O [Example 13, N-(2-chloro-4-fluoro-3-((5-fluoro-3-methyl-4-oxo-3,4-dihydroquinazolin-6-yl)amino)phenyl)-2-azabicyclo[2.1.1]hexane-2-sulfonamide]"
5,3,120,28,"Cn1cnc2ccc(Nc3c(F)ccc(NS(=O)(=O)N4CC[C@@H](F)C4)c3Cl)c(F)c2c1=O [Example 14, (R)-N-(2-chloro-4-fluoro-3-((5-fluoro-3-methyl-4-oxo-3,4-dihydroquinazolin-6-yl)amino)phenyl)-3-fluoropyrrolidine-1-sulfonamide]"
